The target in experiment [1] is T1, Tyrosine-protein phosphatase non-receptor type 1 (Homo sapiens, UniProt P18031).
T1 sequence (P18031 whole entry): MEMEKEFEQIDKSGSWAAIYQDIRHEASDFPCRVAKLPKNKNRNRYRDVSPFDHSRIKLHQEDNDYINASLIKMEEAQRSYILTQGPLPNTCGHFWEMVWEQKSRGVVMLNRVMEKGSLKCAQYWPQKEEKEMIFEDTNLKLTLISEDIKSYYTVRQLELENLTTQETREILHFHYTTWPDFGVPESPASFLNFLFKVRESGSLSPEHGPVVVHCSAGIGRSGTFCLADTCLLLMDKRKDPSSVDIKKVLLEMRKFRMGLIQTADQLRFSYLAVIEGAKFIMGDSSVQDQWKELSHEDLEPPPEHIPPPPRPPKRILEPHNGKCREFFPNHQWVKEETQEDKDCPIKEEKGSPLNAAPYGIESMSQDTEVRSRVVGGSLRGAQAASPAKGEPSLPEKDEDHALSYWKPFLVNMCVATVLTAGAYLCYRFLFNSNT
In words: Inhibition of recombinant PTP1B using para-nitrophenylphosphate as substrate by high throughput screening assay.

Experiment [2] deals with T2, Tyrosine-protein phosphatase non-receptor type 1 (Homo sapiens) (UniProt P18031).
T2 sequence (whole entry): T1 sequence (P18031 whole entry)
In words: Inhibition of recombinant PTP1B using para-nitrophenylphosphate as substrate at 20 ug/mL by high throughput screening assay.

Experiment [3] addresses Receptor-type tyrosine-protein phosphatase F (Homo sapiens, UniProt P10586). Kind of experiment: Inhibition of LAR.
In experiment [4] the target is Tyrosine-protein phosphatase non-receptor type 6 (Homo sapiens, UniProt P29350). Kind of experiment: Inhibition of SHP-1.
The target of experiment [5] is T3, Tyrosine-protein phosphatase non-receptor type 2 (Homo sapiens, UniProt P17706).
T3 sequence (P17706 whole entry): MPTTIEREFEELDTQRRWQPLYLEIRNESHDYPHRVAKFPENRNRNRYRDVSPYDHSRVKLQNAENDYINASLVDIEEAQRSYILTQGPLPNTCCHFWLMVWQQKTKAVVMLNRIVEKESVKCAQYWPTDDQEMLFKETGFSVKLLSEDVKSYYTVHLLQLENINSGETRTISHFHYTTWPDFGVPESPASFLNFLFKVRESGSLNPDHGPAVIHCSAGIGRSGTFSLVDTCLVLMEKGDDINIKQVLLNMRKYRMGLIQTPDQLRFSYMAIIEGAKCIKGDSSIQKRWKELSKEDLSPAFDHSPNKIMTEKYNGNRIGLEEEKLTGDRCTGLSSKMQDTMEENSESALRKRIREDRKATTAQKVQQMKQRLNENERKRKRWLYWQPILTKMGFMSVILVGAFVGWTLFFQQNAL
In words: Inhibition of TCPTP.

The structures appear in SMILES notation. Where only a bound is given, the exact number is not on record here.

Sequence of Receptor-type tyrosine-protein phosphatase F (P10586 whole entry): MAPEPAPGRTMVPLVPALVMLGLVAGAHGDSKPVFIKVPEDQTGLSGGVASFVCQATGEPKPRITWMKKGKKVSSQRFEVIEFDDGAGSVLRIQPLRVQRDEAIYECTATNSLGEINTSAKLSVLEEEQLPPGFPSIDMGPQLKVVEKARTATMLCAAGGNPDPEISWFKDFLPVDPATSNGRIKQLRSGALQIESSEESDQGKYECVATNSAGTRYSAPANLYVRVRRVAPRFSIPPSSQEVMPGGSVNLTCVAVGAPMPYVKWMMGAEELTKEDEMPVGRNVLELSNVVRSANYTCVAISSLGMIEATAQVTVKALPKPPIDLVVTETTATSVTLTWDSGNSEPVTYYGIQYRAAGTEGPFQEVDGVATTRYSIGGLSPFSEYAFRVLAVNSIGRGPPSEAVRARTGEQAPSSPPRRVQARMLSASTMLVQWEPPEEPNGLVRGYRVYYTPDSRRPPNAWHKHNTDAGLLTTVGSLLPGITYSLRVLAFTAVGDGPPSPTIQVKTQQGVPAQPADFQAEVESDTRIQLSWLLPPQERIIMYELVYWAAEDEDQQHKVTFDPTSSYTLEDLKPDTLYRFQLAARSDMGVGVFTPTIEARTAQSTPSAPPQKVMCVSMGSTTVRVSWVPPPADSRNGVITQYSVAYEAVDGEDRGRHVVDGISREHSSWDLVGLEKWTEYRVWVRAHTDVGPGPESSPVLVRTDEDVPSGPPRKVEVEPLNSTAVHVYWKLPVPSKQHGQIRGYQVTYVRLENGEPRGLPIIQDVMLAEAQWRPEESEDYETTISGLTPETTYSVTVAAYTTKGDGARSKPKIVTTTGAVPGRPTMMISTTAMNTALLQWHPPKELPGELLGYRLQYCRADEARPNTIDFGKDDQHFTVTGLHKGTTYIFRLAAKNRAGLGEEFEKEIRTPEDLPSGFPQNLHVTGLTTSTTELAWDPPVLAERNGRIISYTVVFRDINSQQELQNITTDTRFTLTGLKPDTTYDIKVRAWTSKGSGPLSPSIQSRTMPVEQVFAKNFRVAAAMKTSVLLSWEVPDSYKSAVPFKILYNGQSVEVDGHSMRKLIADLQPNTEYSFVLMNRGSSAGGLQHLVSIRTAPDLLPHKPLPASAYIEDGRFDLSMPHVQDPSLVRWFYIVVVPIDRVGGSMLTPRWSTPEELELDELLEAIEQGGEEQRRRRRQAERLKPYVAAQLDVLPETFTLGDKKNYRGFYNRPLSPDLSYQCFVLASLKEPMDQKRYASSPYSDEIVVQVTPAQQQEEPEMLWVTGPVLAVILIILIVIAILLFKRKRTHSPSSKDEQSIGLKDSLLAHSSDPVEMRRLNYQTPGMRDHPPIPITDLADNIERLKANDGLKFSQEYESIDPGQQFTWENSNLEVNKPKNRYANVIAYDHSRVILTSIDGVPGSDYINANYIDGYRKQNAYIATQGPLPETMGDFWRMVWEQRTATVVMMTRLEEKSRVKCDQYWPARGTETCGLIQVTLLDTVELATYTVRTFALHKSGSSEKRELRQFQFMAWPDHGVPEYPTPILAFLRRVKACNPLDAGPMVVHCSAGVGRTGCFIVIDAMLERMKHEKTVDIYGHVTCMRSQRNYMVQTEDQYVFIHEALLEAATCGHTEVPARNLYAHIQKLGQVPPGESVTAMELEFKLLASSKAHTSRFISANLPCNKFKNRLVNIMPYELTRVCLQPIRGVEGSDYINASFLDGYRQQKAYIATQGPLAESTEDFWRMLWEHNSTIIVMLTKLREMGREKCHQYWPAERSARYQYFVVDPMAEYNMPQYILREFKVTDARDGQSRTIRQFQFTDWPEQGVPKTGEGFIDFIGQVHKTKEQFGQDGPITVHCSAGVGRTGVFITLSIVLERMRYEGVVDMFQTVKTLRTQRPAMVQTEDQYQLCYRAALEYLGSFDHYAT
Sequence of Tyrosine-protein phosphatase non-receptor type 6 (P29350 whole entry): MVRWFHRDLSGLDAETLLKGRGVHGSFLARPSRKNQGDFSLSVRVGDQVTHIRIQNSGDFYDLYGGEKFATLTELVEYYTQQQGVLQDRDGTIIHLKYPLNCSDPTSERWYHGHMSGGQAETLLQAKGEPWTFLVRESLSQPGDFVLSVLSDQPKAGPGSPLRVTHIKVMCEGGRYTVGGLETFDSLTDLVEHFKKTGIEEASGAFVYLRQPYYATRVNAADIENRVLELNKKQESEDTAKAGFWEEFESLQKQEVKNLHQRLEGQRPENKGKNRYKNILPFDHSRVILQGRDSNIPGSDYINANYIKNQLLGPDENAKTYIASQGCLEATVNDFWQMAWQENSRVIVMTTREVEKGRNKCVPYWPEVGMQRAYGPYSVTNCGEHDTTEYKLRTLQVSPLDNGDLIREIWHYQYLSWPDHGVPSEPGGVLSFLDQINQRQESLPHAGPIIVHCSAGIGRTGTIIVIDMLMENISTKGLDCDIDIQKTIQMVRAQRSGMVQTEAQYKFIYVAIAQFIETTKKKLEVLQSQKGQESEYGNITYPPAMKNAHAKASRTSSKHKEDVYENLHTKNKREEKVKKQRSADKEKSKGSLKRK

For the compound `O=C1Nc2ccccc2/C1=C\c1ccc(CN2C(=O)C(=O)c3ccccc32)o1`, in experiment [1], the IC50 (as a rule, the concentration at which inhibition is half-maximal) came to 7.63 µM. On the same count and under the same terms, under `Cc1ccc2c(c1)C(=O)C(=O)N2Cc1ccc(C=O)o1` stands > 60 µM. For `COC(=O)[C@@H]1CCCCN1Cc1ccc(/C=C2/C(=O)Nc3ccc(F)cc32)o1`, the inhibition (commonly the drop in the measured response relative to a control, in per cent) in experiment [2] was found to be 14%. Turning to `O=C1Nc2ccc(Cl)cc2/C1=C\c1ccc(CN2C(=O)C(=O)c3ccccc32)o1`, in experiment [1], the concentration for half-maximal inhibition (IC50) was determined as 4.41 µM.

Regarding `O=Cc1ccc(CN2C(=O)C(=O)c3cc(Cl)ccc32)o1`, the half-maximal inhibitory concentration (IC50) in experiment [1] was > 60 µM. Same read-out and setting: as for `Cc1ccc2c(c1)/C(=C\c1ccc(CN3C(=O)C(=O)c4cc(Cl)ccc43)o1)C(=O)N2`, the figure is 3.37 µM. On the same count and under the same terms, as for `O=C1Nc2ccc([N+](=O)[O-])cc2/C1=C\c1ccc(CN2C(=O)C(=O)c3ccccc32)o1`, the figure is 5.35 µM; as for `Cc1ccc2c(c1)C(=O)C(=O)N2Cc1ccc(/C=C2/C(=O)Nc3ccc(C)cc32)o1`, 5.7 µM; as for `O=C1Nc2ccccc2/C1=C\c1ccc(CN2C(=O)C(=O)c3cc(Cl)ccc32)o1`, 4.59 µM.

On to `Cc1ccc2c(c1)/C(=C\c1ccc(CN3C(=O)C(=O)c4ccccc43)o1)C(=O)N2`, for which the half-inhibitory concentration (IC50) in experiment [1] amounted to 9.82 µM.

Regarding `Cc1ccc2c(c1)C(=O)C(=O)N2Cc1ccc(/C=C2/C(=O)Nc3ccc(Br)cc32)o1`, the half-maximal inhibitory concentration (IC50) in experiment [1] turned out to be 5.23 µM. On to `O=C1Nc2ccc(Cl)cc2/C1=C\c1ccc(CN2C(=O)C(=O)c3cc(Cl)ccc32)o1`, for which the half-maximal inhibitory concentration (IC50) in experiment [3] was > 100 µM; in experiment [4], > 100 µM; in experiment [1], 2.3 µM; in experiment [5], 18.8 µM. As for `O=Cc1ccc(CN2C(=O)C(=O)c3ccccc32)o1`, the 50% inhibitory concentration (IC50) in experiment [1] is > 60 µM.

With `COC(=O)[C@@H]1CCCCN1Cc1ccc(/C=C2/C(=O)N(Cc3ccc(C=O)o3)c3ccc(F)cc32)o1`, in experiment [2], the inhibition turned out to be 55%. As for `Cc1ccc2c(c1)C(=O)C(=O)N2Cc1ccc(/C=C2/C(=O)Nc3ccccc32)o1`, the IC50 in experiment [1] was 6.71 µM.

For the compound `O=C1Nc2ccc(Br)cc2/C1=C\c1ccc(CN2C(=O)C(=O)c3ccccc32)o1`, the half-maximal inhibitory concentration (IC50) in experiment [3] is > 100 µM; in experiment [4] it was > 100 µM; in experiment [1], 2.8 µM; in experiment [5] it was 11.5 µM. For `Cc1ccc2c(c1)C(=O)C(=O)N2Cc1ccc(/C=C2/C(=O)Nc3ccc(Cl)cc32)o1`, the concentration for half-maximal inhibition (IC50) in experiment [1] was 3.46 µM. `COC(=O)[C@@H]1CCCCN1Cc1ccc(/C=C2/C(=O)N(Cc3ccc(/C=C4/C(=O)Nc5ccccc54)o3)c3ccc(F)cc32)o1`: the inhibition in experiment [2] is 75%.

Source of the values: ChEMBL document CHEMBL2203044, “Discovery of di-indolinone as a novel scaffold for protein tyrosine phosphatase 1B inhibitors” (Bioorg Med Chem Lett, 2012).
